Legend:
Format in all cases: subcellular
[1] = biological target: Transporter (Rattus norvegicus) (UniProt F1LNR9); experiment: Inhibition of re-uptake of [3H]noradrenaline at NET in Wistar rat hippocampal synaptosomes by liquid scintillation counting relative to untreated control; conditions: Hippocampus, concentration not given here
[2] = biological target: Sodium-dependent serotonin transporter (Rattus norvegicus) (UniProt P31652); experiment: Inhibition of re-uptake of [3H]5-hydroxytryptamine at SERT in Wistar rat cortical synaptosomes by liquid scintillation counting relative to untreated control; conditions: concentration not given here
Chain of Sodium-dependent serotonin transporter (Rattus norvegicus) (P31652 whole entry): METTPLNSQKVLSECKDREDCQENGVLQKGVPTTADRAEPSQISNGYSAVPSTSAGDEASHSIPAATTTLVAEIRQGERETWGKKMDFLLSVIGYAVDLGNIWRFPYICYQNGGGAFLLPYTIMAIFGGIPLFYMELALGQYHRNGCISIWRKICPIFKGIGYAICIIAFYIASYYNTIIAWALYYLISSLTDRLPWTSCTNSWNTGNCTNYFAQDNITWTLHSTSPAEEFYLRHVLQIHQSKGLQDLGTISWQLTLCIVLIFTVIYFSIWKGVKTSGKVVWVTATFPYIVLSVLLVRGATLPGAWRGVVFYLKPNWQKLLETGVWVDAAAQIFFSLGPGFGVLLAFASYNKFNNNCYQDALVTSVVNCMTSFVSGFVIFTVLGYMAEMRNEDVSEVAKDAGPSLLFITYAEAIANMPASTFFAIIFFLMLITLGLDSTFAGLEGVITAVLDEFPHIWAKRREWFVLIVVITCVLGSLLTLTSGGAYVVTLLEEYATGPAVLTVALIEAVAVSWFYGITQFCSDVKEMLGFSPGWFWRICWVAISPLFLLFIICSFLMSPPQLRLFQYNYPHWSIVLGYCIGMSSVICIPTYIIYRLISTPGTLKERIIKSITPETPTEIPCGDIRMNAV

[3] = biological target: Sodium-dependent dopamine transporter (Rattus norvegicus) (UniProt P23977); experiment: Inhibition of re-uptake of [3H]dopamine at DAT in Wistar rat corpus striatum synaptosomes by liquid scintillation counting relative to untreated control; conditions: concentration not given here
Chain of Sodium-dependent dopamine transporter (Rattus norvegicus) (P23977 whole entry): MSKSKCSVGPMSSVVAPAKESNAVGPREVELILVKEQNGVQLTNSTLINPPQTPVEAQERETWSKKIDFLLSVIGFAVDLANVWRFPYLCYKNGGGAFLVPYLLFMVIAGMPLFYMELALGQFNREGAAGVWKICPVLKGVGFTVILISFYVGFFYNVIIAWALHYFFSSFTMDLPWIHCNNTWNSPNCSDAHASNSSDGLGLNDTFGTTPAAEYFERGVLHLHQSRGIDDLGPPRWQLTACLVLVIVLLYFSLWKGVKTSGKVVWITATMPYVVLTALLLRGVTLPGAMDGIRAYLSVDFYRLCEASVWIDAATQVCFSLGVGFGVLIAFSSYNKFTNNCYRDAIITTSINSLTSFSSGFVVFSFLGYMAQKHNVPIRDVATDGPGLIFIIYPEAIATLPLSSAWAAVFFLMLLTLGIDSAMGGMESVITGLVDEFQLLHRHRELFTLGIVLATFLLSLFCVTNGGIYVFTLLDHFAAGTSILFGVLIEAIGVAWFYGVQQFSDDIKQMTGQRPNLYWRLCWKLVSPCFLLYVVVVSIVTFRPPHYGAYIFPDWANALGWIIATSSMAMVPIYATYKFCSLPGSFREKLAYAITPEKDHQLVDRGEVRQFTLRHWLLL

Measured: inhibition

Chain of Transporter (Rattus norvegicus) (F1LNR9 as listed by the source): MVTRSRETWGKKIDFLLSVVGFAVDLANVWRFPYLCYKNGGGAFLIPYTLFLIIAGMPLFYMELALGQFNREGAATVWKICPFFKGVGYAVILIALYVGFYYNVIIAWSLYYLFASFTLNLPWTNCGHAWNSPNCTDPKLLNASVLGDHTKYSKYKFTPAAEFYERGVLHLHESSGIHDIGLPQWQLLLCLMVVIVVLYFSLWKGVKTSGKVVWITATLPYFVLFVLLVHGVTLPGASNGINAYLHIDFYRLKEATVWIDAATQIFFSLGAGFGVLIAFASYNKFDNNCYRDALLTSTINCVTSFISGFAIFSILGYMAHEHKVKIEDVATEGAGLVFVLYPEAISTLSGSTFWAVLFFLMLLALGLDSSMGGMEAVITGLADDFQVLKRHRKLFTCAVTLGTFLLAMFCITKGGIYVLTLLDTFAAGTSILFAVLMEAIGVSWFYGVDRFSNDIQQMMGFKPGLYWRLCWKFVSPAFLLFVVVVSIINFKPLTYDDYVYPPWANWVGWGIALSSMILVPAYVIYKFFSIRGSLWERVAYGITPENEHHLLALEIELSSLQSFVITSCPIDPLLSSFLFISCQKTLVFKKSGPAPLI

CN1[C@H]2CC[C@@H]1[C@H](CSc1ccccc1)[C@@H](c1ccc(Cl)c(Cl)c1)C2
25 to 75%: all assays above

CCOC[C@@H]1[C@@H](c2ccc(Cl)c(Cl)c2)C[C@@H]2CC[C@H]1N2C
25 to 75%: all assays above

COC[C@@H]1[C@@H](c2ccc(Cl)c(Cl)c2)C[C@@H]2CC[C@H]1N2C
25 to 75%: all assays above

— ChEMBL document CHEMBL3880392, “Tropane-derivatives, their preparation and use” (2002)
